Test results as given in US9302999B2, “Substituted triazoles as herbicides” (E. I. DU PONT DE NEMOURS AND COMPANY, priority 2012, dated 2016).

Legend:
[1] = system: velvetleaf (Abutilon theophrasti); experiment: Test F pre-/postemergence: velvetleaf; format: in vivo; conditions: Preemergence
From the text: (§1) Seeds of plant species selected from corn (Zea mays), soybean (Glycine max), velvetleaf (Abutilon theophrasti), lambsquarters (Chenopodium album), poinsettia, wild (wild poinsettia, Euphorbia heterophylla), pigweed, palmer (palmer pigweed, Amaranthus palmeri), waterhemp (common waterhemp, Amaranthus rudis), surinam grass (Brachiaria decumbens), crabgrass, Brazil (Brazilian crabgrass, Digitaria horizontalis), panicum, fall (fall panicum Panicum dichotomiflorum), crabgrass, large (large crabgrass, Digitaria sanguinalis), foxtail, giant (giant foxtail, Setaria faberii), foxtail, green (green foxtail Setaria viridis), goosegrass (Eleusine indica), ragweed (common ragweed, Ambrosia elatior), barnyardgrass (Echinochloa crus-galli), sandbur (southern sandbur, Cenchrus echinatus), arrowleaf sida (Sida rhombifolia), ryegrass, Italian (Italian ryegrass, Lolium multiflorum), dayflower, VA (Virginia (VA) dayflower, Commelina virginica), field bindweed (Convolvulus arvensis), cocklebur (common cocklebur, Xanthium strumarium), morningglory (Ipomoea coccinea), nightshade (eastern black nightshade, Solanum ptycanthum), kochia (Kochia scoparia), nutsedge, yellow (yellow nutsedge, Cyperus esculentus), johnsongrass (Sorghum halepense), smartweed (ladysthumb smartweed, Polygonum persicaria), and beggarticks (hairy beggarticks, Bidens pilosa), were planted into a silt loam soil and treated preemergence with test chemicals formulated in a non-phytotoxic solvent mixture which included a surfactant. At the same time, plants selected from these crop and weed species and also pigweed (Amaranthus retroflexus), waterhemp_RES1 (ALS/Triazine resistant common waterhemp, Amaranthus rudis) and waterhemp_RES2 (ALS/HPPD resistant common waterhemp, Amaranthus rudis) were planted in pots containing a planting medium comprising spaghnum peat moss, vermiculite, wetting agent and starter nutrients treated with postemergence applications of some of the test chemicals formulated in the same manner. Plants ranged in height from 2 to 18 cm for postemergence treatments (1- to 4-leaf stage).
(§2) Treated plants and controls were maintained in a greenhouse for 14 to 21 days, after which time all species were compared to controls and visually evaluated. Plant response ratings, summarized in Table E, are based on a scale of 0 to 100 where 0 is no effect and 100 is complete control. A dash (-) response means no test result.

[2] = system: field bindweed (Convolvulus arvensis); experiment: Test F pre-/postemergence: field bindweed; format: in vivo
From the text: as §1, §2

[3] = system: ragweed (common ragweed, Ambrosia elatior); experiment: Test F pre-/postemergence: ragweed; format: in vivo; conditions: Preemergence
From the text: as §1, §2

Oilseed Rape = experiment: Test C pre-/postemergence: oilseed rape; format: in vivo
From the text: (§3) Seeds of plant species selected from blackgrass (Alopecurus myosuroides), bromegrass, downy (downy bromegrass, Bromus tectorum), foxtail, green (green foxtail, Setaria viridis), ryegrass, Italian (Italian ryegrass, Lolium multiflorum), winter wheat (Triticum aestivum), wild oat (Avena fatua), galium (catchweed bedstraw, Galium aparine), bermudagrass (Cynodon dactylon), surinam grass (Brachiaria decumbens), cocklebur (common cocklebur, Xanthium strumarium), corn (Zea mays), large crabgrass (Digitaria sanguinalis), woolly cupgrass (Eriochloa villosa), foxtail, giant (giant foxtail, Setaria faberii), goosegrass (Eleusine indica), johnsongrass (Sorghum halepense), kochia (Kochia scoparia), lambsquarters (Chenopodium album), morningglory (Ipomoea coccinea), nightshade (eastern black nightshade, Solanum ptycanthum), nutsedge, yellow (yellow nutsedge, Cyperus esculentus), pigweed (Amaranthus retroflexus), ragweed (common ragweed, Ambrosia elation), soybean (Glycine max), common (oilseed) sunflower (Helianthus annuus), Russian thistle (Salsola kali) and velvetleaf (Abutilon theophrasti) were planted into a blend of loam soil and sand and treated preemergence with test chemicals formulated in a non-phytotoxic solvent mixture which included a surfactant.
(§4) At the same time, plants selected from these crop and weed species and also barley (winter barley, Hordeum vulgare), canarygrass (Phalaris minor), chickweed (common chickweed, Stellaria media) windgrass (Apera spica-venti) and deadnettle (henbit deadnettle, Lamium amplexicaule) were planted in pots containing Redi-Earth® planting medium (Scotts Company, 14111 Scottslawn Road, Marysville, Ohio 43041) comprising spaghnum peat moss, vermiculite, wetting agent and starter nutrients and treated with postemergence applications of test chemicals formulated in the same manner. Plants ranged in height from 2 to 18 cm (1- to 4-leaf stage) for postemergence treatments.
as §2, with “13” for “14”, “15” for “21”, “C,” for “E,”

Waterhemp = experiment: Test C postemergence: waterhemp; format: in vivo, Amaranthus rudis
From the text: as §3, §4
as §2, with “13” for “14”, “15” for “21”, “C,” for “E,”

Barnyardgrass = experiment: Test C postemergence: barnyardgrass; format: in vivo, Echinochloa crus-galli; conditions: 125 g ai/ha, scale 0 to 100, 0 no effect, 100 complete control
From the text: as §3, §4
as §2, with “13” for “14”, “15” for “21”, “C,” for “E,”

[4] = system: johnsongrass (Sorghum halepense); experiment: Test E pre-/postemergence: johnsongrass; format: in vivo; conditions: Preemergence, scale 0 to 100
From the text: Seeds of plant species selected from corn (Zea mays), soybean (Glycine max), velvetleaf (Abutilon theophrasti), lambsquarters (Chenopodium album), poinsettia, wild (wild poinsettia, Euphorbia heterophylla), pigweed, palmer (palmer pigweed, Amaranthus palmeri), waterhemp (common waterhemp, Amaranthus rudis), smartweed (ladysthumb smartweed, Polygonum persicaria), surinam grass (Brachiaria decumbens), crabgrass, large (large crabgrass, Digitaria sanguinalis), crabgrass, Brazil (Brazilian crabgrass, Digitaria horizontalis), panicum, fall (fall panicum, Panicum dichotomiflorum), foxtail, giant (giant foxtail, Setaria faberii), foxtail, green (green foxtail, Setaria viridis), goosegrass (Eleusine indica), johnsongrass (Sorghum halepense), ragweed (common ragweed, Ambrosia elation), barnyardgrass (Echinochloa crus-galli), sandbur (southern sandbur, Cenchrus echinatus), arrowleaf sida (Sida rhombifolia), ryegrass, Italian (Italian ryegrass, Lolium multiflorum), dayflower, (VA) (Virginia dayflower, Commelina virginica), field bindweed (Convolvulus arvensis), cocklebur (common cocklebur, Xanthium strumarium), morningglory (Ipomoea coccinea), nightshade (eastern black nightshade, Solanum ptycanthum), kochia (Kochia scoparia), nutsedge, yellow (yellow nutsedge, Cyperus esculentus) and beggarticks (hairy beggarticks, Bidens pilosa) were planted into a silt loam soil and treated preemergence with test chemicals formulated in a non-phytotoxic solvent mixture which included a surfactant. At the same time, plants selected from these crop and weed species were planted in pots containing a growing medium comprising spaghnum peat moss, vermiculite, wetting agent and starter nutrients and treated with postemergence applications of some of the test chemicals formulated in the same manner. Plants ranged in height from 2 to 18 cm for postemergence treatments (1- to 4-leaf stage).
as §2

[5] = 4 g ai/ha, scale 0 to 100, 0 no effect, 100 complete control
[6] = 8 g ai/ha, scale 0 to 100, 0 no effect, 100 complete control
[7] = 16 g ai/ha, scale 0 to 100 (0 no effect, 100 complete control)
[8] = 31 g ai/ha, scale 0 to 100 (0 no effect, 100 complete control)
[9] = Postemergence, 8 g ai/ha, scale 0 to 100
[10] = Postemergence, 16 g ai/ha, scale 0 to 100
[11] = Postemergence, 62 g ai/ha, scale 0 to 100
[12] = Preemergence, 16 g ai/ha, scale 0 to 100 (0 no effect, 100 complete control)
[13] = Preemergence, 31 g ai/ha, scale 0 to 100 (0 no effect, 100 complete control)
[14] = Preemergence, 62 g ai/ha, scale 0 to 100
[15] = Preemergence, 250 g ai/ha, scale 0 to 100, 0 no effect, 100 complete control
[16] = 125 g ai/ha, scale 0 to 100, 0 no effect, 100 complete control
[17] = Postemergence, 31 g ai/ha, scale 0 to 100 (0 no effect, 100 complete control)
[18] = Preemergence, 125 g ai/ha, scale 0 to 100

Row | SMILES | Plant response rating, Velvetleaf [1, 7] | Plant response rating, Velvetleaf [1, 8] | Plant response rating, Field Bindweed [2, 12] | Plant response rating, Field Bindweed [2, 13] | Plant response rating, Field Bindweed [2, 14] | Plant response rating, Ragweed [3, 7] | Plant response rating, Ragweed [3, 8] | Plant response rating, Oilseed Rape (Oilseed Rape; [15]) | Plant response rating, Waterhemp (Waterhemp; [16]) | Plant response rating, Barnyardgrass (Barnyardgrass) | Plant response rating: Johnsongrass ([4]; 16 g ai/ha) | Plant response rating: Johnsongrass ([4]; 31 g ai/ha) | Plant response rating: Johnsongrass ([4]; 62 g ai/ha) | Plant response rating: Johnsongrass ([4]; 125 g ai/ha) | other results
1 | Cc1nn(-c2ccc(C(F)(F)F)c(F)c2)nc1Cc1ccnc(C(F)(F)F)c1 [Compound 162] | 0 | 0 | 5 | 5 | 5 | 0 | 70 | 100 | 100 | 90 | – | – | – | – | Plant response rating, Velvetleaf [1, 5]: 0; Plant response rating, Velvetleaf [1, 6]: 0; Plant response rating, Field Bindweed ([2]; Postemergence, 4 g ai/ha, scale 0 to 100): 20; Plant response rating, Field Bindweed [2, 9]: 20; Plant response rating, Field Bindweed [2, 10]: 20; Plant response rating, Field Bindweed ([2]; Postemergence, 31 g ai/ha, scale 0 to 100): 30; Plant response rating, Field Bindweed [2, 11]: 50; Plant response rating, Field Bindweed ([2]; Preemergence, 4 g ai/ha, scale 0 to 100, 0 no effect, 100 complete control): 0; Plant response rating, Field Bindweed ([2]; Preemergence, 8 g ai/ha, scale 0 to 100, 0 no effect, 100 complete control): 0; Plant response rating, Ragweed [3, 5]: 0; Plant response rating, Ragweed [3, 6]: 0
2 | CCCc1nn(-c2ccc(C(F)(F)F)c(F)c2)nc1Oc1ccnc(C(F)(F)F)c1 [Compound 185] | – | – | – | – | – | – | – | 100 | 95 | 70 | – | – | – | – | Plant response rating, Oilseed Rape (Oilseed Rape; [17]): 10; Plant response rating, Waterhemp (Waterhemp; 250 g ai/ha, scale 0 to 100 (0 no effect, 100 complete control)): 100
3 | Cc1nn(-c2ccc(C(F)(F)F)cc2)nc1Cc1ccnc(C(F)(F)F)c1 [Compound 47, 4-[[5-methyl-2-[4-(trifluoromethyl)phenyl]-2H-1,2,3-triazol-4-yl]methyl]-2-(trifluoromethyl)pyridine] | – | – | – | – | – | – | – | – | – | – | 25 | 30 | 35 | 40 | Plant response rating: Johnsongrass ([4]; 250 g ai/ha): 100
4 | CCCc1nn(-c2ccc(F)cc2)nc1Cc1ccnc(C(F)(F)F)c1 [Compound 153] | 20 | 50 | 5 | 65 | 65 | 5 | 5 | 98 | 98 | 45 | – | – | – | – | Plant response rating, Velvetleaf ([1]; 125 g ai/ha, scale 0 to 100): 98; Plant response rating, Velvetleaf ([1]; 250 g ai/ha, scale 0 to 100): 100; Plant response rating, Field Bindweed [2, 18]: 100; Plant response rating, Field Bindweed ([2]; Preemergence, 250 g ai/ha, scale 0 to 100): 100; Plant response rating, Ragweed ([3]; 125 g ai/ha, scale 0 to 100): 20; Plant response rating, Ragweed ([3]; 250 g ai/ha, scale 0 to 100): 80
5 | Cc1nn(-c2ccc(F)c(F)c2)nc1Oc1ccnc(C(F)(F)F)c1 [Compound 145] | – | – | – | – | – | – | – | – | – | – | – | – | – | – | Plant response rating, Field Bindweed [2, 9]: 50; Plant response rating, Field Bindweed [2, 10]: 60; Plant response rating, Field Bindweed [2, 11]: 70; Plant response rating, Field Bindweed ([2]; Postemergence, 125 g ai/ha, scale 0 to 100): 75
6 | CCc1nn(-c2ccc(F)cc2)nc1Oc1ccnc(C(F)(F)F)c1 [Compound 166] | – | – | – | – | – | – | – | 100 | 98 | 45 | – | – | – | – | Plant response rating, Oilseed Rape (Oilseed Rape; [17]): 5
7 | Cc1nn(-c2ccc(F)cc2)nc1Oc1ccnc(C(F)(F)F)c1 [Compound 129, 4-[[2-(4-fluorophenyl)-5-methyl-2H-1,2,3-triazol-4-yl]oxy]-2-(trifluoromethyl)pyridine] | – | – | – | – | – | – | – | – | – | – | 20 | 20 | 20 | 25 | Plant response rating: Johnsongrass ([4]; 8 g ai/ha): 0
8 | Cc1nn(-c2ccc(F)cc2)nc1Cc1ccnc(C(F)(F)F)c1 [Compound 16, 4-[[2-(4-fluorophenyl)-5-methyl-2H-1,2,3-triazol-4-yl]methyl]-2-(trifluoromethyl)pyridine] | – | – | – | – | – | – | – | – | – | – | 15 | 20 | 40 | 98 | Plant response rating: Johnsongrass ([4]; 8 g ai/ha): 0
9 | Fc1ccc(-n2nc(Cc3ccnc(C(F)(F)F)c3)c(OCC(F)(F)F)n2)cc1 [Compound 142] | 0 | 0 | 20 | 50 | 75 | 0 | 0 | – | – | – | – | – | – | – | Plant response rating, Velvetleaf ([1]; 125 g ai/ha, scale 0 to 100): 75; Plant response rating, Field Bindweed [2, 18]: 98; Plant response rating, Ragweed ([3]; 125 g ai/ha, scale 0 to 100): 40
